Data reported in ChEMBL document CHEMBL1201862, “PubChem BioAssay data set” (2004).
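Five concentrations, 48 hours, 96-well plates. GI50 is the concentration that inhibits growth by half.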 The source made the active and inactive calls. Rule as the data show it: active = GI50 up to about 1.1 µM and inactive = higher.

Tests used:
Assay in all cases: NCI-60 cell line screen, 48 h
HOP-62 = test system: HOP-62
NCI/ADR-RES = test system: NCI/ADR-RES
MDA-N = test system: MDA-N
RPMI-8226 = test system: RPMI-8226
UACC-257 = test system: UACC-257
Malme-3M = test system: Malme-3M
TK-10 = test system: TK-10
Hs-578T = test system: Hs-578T
SN12C = test system: SN12C
SW-620 = test system: SW-620
DU-145 = test system: DU-145
A498 = test system: A498
KM12 = test system: KM12
MDA-MB-231 = test system: MDA-MB-231
EKVX = test system: EKVX
PC-3 = test system: PC-3
OVCAR-3 = test system: OVCAR-3
SR = test system: SR
T47D = test system: T47D
HT-29 = test system: HT-29
SNB-75 = test system: SNB-75
LOX IMVI = test system: LOX IMVI
COLO 205 = test system: COLO 205
SNB-19 = test system: SNB-19
UACC-62 = test system: UACC-62
MOLT-4 = test system: MOLT-4
HL-60 = test system: HL-60
NCI-H226 = test system: NCI-H226
U-251 = test system: U-251
BT-549 = test system: BT-549
CCRF-CEM = test system: CCRF-CEM
K562 = test system: K562
M14 = test system: M14
HCT-15 = test system: HCT-15
NCI-H460 = test system: NCI-H460
A549 = test system: A549
MDA-MB-435 = test system: MDA-MB-435
786-0 = test system: 786-0
SK-MEL-5 = test system: SK-MEL-5
SF-295 = test system: SF-295
OVCAR-4 = test system: OVCAR-4
MCF7 = test system: MCF7
SK-OV-3 = test system: SK-OV-3
CAKI-1 = test system: CAKI-1
NCI-H23 = test system: NCI-H23
RXF 393 = test system: RXF 393
NCI-H522 = test system: NCI-H522
SF-268 = test system: SF-268
ACHN = test system: ACHN
SK-MEL-2 = test system: SK-MEL-2
HOP-92 = test system: HOP-92
HCT-116 = test system: HCT-116
OVCAR-8 = test system: OVCAR-8
SF-539 = test system: SF-539
OVCAR-5 = test system: OVCAR-5
SK-MEL-28 = test system: SK-MEL-28
IGROV-1 = test system: IGROV-1
HCC 2998 = test system: HCC 2998
UO-31 = test system: UO-31

SMILES: CCN(CC)CCn1ncc2c3c(=O)c4cccnc4n(CCN(CC)CC)c3ccc21
- GI50 (HOP-62): > 10 µM (inactive)
- GI50 (NCI/ADR-RES): 9.18 µM (inactive)
- GI50 (MDA-N): > 10 µM (inactive)
- GI50 (RPMI-8226): > 10 µM (inactive)
- GI50 (UACC-257): > 10 µM (inactive)
- GI50 (Malme-3M): > 10 µM (inactive)
- GI50 (TK-10): > 10 µM (inactive)
- GI50 (Hs-578T): 8.67 µM (inactive)
- GI50 (SN12C): 8.87 µM (inactive)
- GI50 (SW-620): 3.77 µM (inactive)
- GI50 (DU-145): > 10 µM (inactive)
- GI50 (A498): > 10 µM (inactive)
- GI50 (KM12): 6.19 µM (inactive)
- GI50 (MDA-MB-231): > 10 µM (inactive)
- GI50 (EKVX): > 10 µM (inactive)
- GI50 (PC-3): > 10 µM (inactive)
- GI50 (OVCAR-3): 8.11 µM (inactive)
- GI50 (SR): 6.98 µM (inactive)
- GI50 (T47D): > 10 µM (inactive)
- GI50 (HT-29): 3.51 µM (inactive)
- GI50 (SNB-75): 9.66 µM (inactive)
- GI50 (LOX IMVI): 5.41 µM (inactive)
- GI50 (COLO 205): 2.32 µM (inactive)
- GI50 (SNB-19): > 10 µM (inactive)
- GI50 (UACC-62): > 10 µM (inactive)
- GI50 (MOLT-4): 4.39 µM (inactive)
- GI50 (HL-60): 8.2 µM (inactive)
- GI50 (NCI-H226): > 10 µM (inactive)
- GI50 (U-251): > 10 µM (inactive)
- GI50 (BT-549): > 10 µM (inactive)
- GI50 (CCRF-CEM): 4.98 µM (inactive)
- GI50 (K562): > 10 µM (inactive)
- GI50 (M14): > 10 µM (inactive)
- GI50 (HCT-15): 5.25 µM
- GI50 (NCI-H460): 6.18 µM (inactive)
- GI50 (A549): > 10 µM (inactive)
- GI50 (MDA-MB-435): 6.21 µM (inactive)
- GI50 (786-0): 5.97 µM (inactive)
- GI50 (SK-MEL-5): > 10 µM (inactive)
- GI50 (SF-295): 7.45 µM (inactive)
- GI50 (OVCAR-4): 4.44 µM (inactive)
- GI50 (MCF7): 3.22 µM (inactive)
- GI50 (SK-OV-3): > 10 µM (inactive)
- GI50 (CAKI-1): > 10 µM (inactive)
- GI50 (NCI-H23): > 10 µM (inactive)
- GI50 (RXF 393): > 10 µM (inactive)
- GI50 (NCI-H522): > 10 µM (inactive)
- GI50 (SF-268): 7.43 µM (inactive)
- GI50 (ACHN): 5.21 µM (inactive)
- GI50 (SK-MEL-2): > 10 µM (inactive)
- GI50 (HOP-92): > 10 µM (inactive)
- GI50 (HCT-116): 3.54 µM (inactive)
- GI50 (OVCAR-8): 7.93 µM (inactive)
- GI50 (SF-539): 9.27 µM (inactive)
- GI50 (OVCAR-5): 9.12 µM (inactive)
- GI50 (SK-MEL-28): > 10 µM (inactive)
- GI50 (IGROV-1): > 10 µM (inactive)
- GI50 (HCC 2998): > 10 µM (inactive)

SMILES: O=CC(=C(I)I)c1ccccc1
- GI50 (HOP-62): 7.24 µM (inactive)
- GI50 (NCI/ADR-RES): 14.6 µM (inactive)
- GI50 (MDA-N): 2.04 µM (inactive)
- GI50 (RPMI-8226): 0.977 µM (active)
- GI50 (UACC-257): 2.9 µM (inactive)
- GI50 (Malme-3M): 2.15 µM (inactive)
- GI50 (TK-10): 2.45 µM (inactive)
- GI50 (Hs-578T): 2.83 µM (inactive)
- GI50 (SN12C): 2.28 µM (inactive)
- GI50 (SW-620): 0.728 µM (active)
- GI50 (DU-145): 7.45 µM (inactive)
- GI50 (A498): 21.6 µM (inactive)
- GI50 (KM12): 3.87 µM (inactive)
- GI50 (MDA-MB-231): 2.87 µM (inactive)
- GI50 (EKVX): 11.5 µM (inactive)
- GI50 (PC-3): 3.7 µM (inactive)
- GI50 (OVCAR-3): 1.98 µM (inactive)
- GI50 (SR): 0.197 µM (active)
- GI50 (T47D): 3.55 µM (inactive)
- GI50 (HT-29): 3.04 µM (inactive)
- GI50 (SNB-75): 2.64 µM (inactive)
- GI50 (LOX IMVI): 1.66 µM (inactive)
- GI50 (COLO 205): 2.51 µM (inactive)
- GI50 (SNB-19): 7.78 µM (inactive)
- GI50 (UACC-62): 6.08 µM (inactive)
- GI50 (MOLT-4): 0.289 µM (active)
- GI50 (HL-60): 0.0635 µM (active)
- GI50 (NCI-H226): 13.4 µM (inactive)
- GI50 (U-251): 3.58 µM (inactive)
- GI50 (BT-549): 4.38 µM (inactive)
- GI50 (CCRF-CEM): 0.2 µM (active)
- GI50 (K562): 0.264 µM (active)
- GI50 (M14): 1.75 µM (inactive)
- GI50 (HCT-15): 1.82 µM
- GI50 (NCI-H460): 17.1 µM (inactive)
- GI50 (A549): 20.2 µM (inactive)
- GI50 (MDA-MB-435): 2.07 µM (inactive)
- GI50 (786-0): 2.14 µM (inactive)
- GI50 (SK-MEL-5): 4.07 µM (inactive)
- GI50 (SF-295): 7.78 µM (inactive)
- GI50 (OVCAR-4): 2.03 µM (inactive)
- GI50 (MCF7): 3.11 µM (inactive)
- GI50 (SK-OV-3): 15.9 µM (inactive)
- GI50 (CAKI-1): 3.03 µM (inactive)
- GI50 (NCI-H23): 2.05 µM (inactive)
- GI50 (RXF 393): 1.88 µM (inactive)
- GI50 (NCI-H522): 2 µM (inactive)
- GI50 (SF-268): 2.25 µM (inactive)
- GI50 (ACHN): 3 µM (inactive)
- GI50 (SK-MEL-2): 6.49 µM (inactive)
- GI50 (HOP-92): 2.57 µM (inactive)
- GI50 (HCT-116): 0.855 µM (active)
- GI50 (OVCAR-8): 2.46 µM (inactive)
- GI50 (SF-539): 2.35 µM (inactive)
- GI50 (UO-31): 2.69 µM (inactive)
- GI50 (OVCAR-5): 6.75 µM (inactive)
- GI50 (SK-MEL-28): 2.64 µM (inactive)
- GI50 (IGROV-1): 4.06 µM (inactive)
- GI50 (HCC 2998): 10.5 µM (inactive)
